Measurements as given in publication PMC6557261 (Cell chemical biology, 2019).
pIC50: −log10 of the molar value.

Assays:
peroxiredoxin 1 (Prx1) = molecular target: T1, peroxiredoxin 1 (Prx1) (Homo sapiens, UniProt Q06830); test: glutamine synthetase protection assay with recombinant Prx1; type: biochemical
T1 sequence (Q06830 2-199): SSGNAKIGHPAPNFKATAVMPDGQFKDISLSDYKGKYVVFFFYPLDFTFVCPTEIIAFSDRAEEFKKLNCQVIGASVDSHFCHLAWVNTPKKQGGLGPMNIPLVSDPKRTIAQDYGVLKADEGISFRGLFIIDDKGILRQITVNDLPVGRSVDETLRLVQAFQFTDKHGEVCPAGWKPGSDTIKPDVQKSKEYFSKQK

peroxiredoxin 2 (Prx2) = molecular target: T2, peroxiredoxin 2 (Prx2) (Homo sapiens, UniProt P32119); test: glutamine synthetase protection assay with recombinant Prx2; type: biochemical
T2 sequence (P32119 2-198): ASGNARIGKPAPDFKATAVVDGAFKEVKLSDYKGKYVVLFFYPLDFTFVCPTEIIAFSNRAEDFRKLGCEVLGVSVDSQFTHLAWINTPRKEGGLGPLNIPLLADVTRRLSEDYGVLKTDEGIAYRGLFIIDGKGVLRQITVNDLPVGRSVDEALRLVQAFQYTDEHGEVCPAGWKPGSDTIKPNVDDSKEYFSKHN

Compound: CCC[C@H]1O[C@@H]2CC(=O)O[C@@H]2C2=C1C(=O)c1c(O)cccc1C2=O [FB, frenolicin B]
- pIC50 (peroxiredoxin 1 (Prx1)): 6.70
- pIC50 (peroxiredoxin 2 (Prx2)): 5.38
